Laboratory results published in patent US11918550B2, “Sensitization of cancer cells to differentiation therapy with mitochondrial uncoupler niclosamide ethanolamine” (The Board of Trustees of the Leland Stanford Junior …, priority 2020, dated 2024).

Tests used:
Assay type in all cases: cell-based
[1] = tested on: SK-N-BE(2); assay: Cell proliferation and morphology change under RA treatment; conditions: 13-cis-RA
Protocol: (§1) Cell proliferation and clonogenic assay. 2×10^4 cells were seeded in 12 well-plate and allowed to attached overnight. Then the cells were treated with various conditions as indicated for 48 h or 96 h (n=3). After treatment, cells were counted using hemocytometer.

[2] = tested on: SMS-KCNR; assay: as above; conditions: 13-cis-RA
Protocol: as §1

[3] = tested on: NB16; assay: as above; conditions: NB16, 13-cis-RA
Protocol: as §1

[4] = tested on: CHP134; assay: as above; conditions: CHP134, 13-cis-RA
Protocol: as §1

[5] = tested on: SK-N-BE2; assay: Expression of RA receptors under RA treatment; conditions: SK-N-BE2, RA 24 h
Protocol: (§2) Protein extraction and immunoblot. Cells were washed with ice-cold PBS buffer (Invitrogen, 20012050) and lysed with harvest buffer (10 mM Hepes pH 7.9, 50 mM NaCl, 500 mM sucrose, 0.1 mM EDTA and 0.5% Trition X-100) supplemented with 1% Halt inhibitors (Thermo Scientific™, 78443) for 10 minutes. Cell lysate was centrifuged at 3000 rpm for 3 min at 4° C. The supernatant containing cytosolic proteins was transferred to a different tube. The pellet containing nuclear proteins was dissolved with nuclear lysis buffer (10 mM Hepes pH 7.9, 0.5M NaCl, 0.1 mM EDTA, 0.1 mM EGTA and 0.1% NP40) supplemented with 1% Halt inhibitors (Thermo Scientific™, 78443) for 5 minutes at 4° C. Then the solution was sonicated at 4° C. for 6 cycles (1 cycle=30 s sonication and 30 s cooldown with “High” energy intensity) using a Bioruptor® Plus sonication (Diagenode, UCD-300). After sonication, the solution was centrifuged at 15,000 rpm for 10 minutes. The supernatant was kept as nuclear extraction. Protein concentration was determined by BCA assay (Thermo Scientific, 23227). 5 μg nuclear proteins or 7.5 μg cytosolic proteins were boiled in loading buffer with reducing reagents (Invitrogen, NuPAGE™ LDS Sample Buffer (4X), NP0007), then separated with SDS-PAGE (Nupage™ 4-12% Bis-Tris Protein Gels, 1.0 mm, Invitrogen™, NP0322BOX). Protein was transferred onto a nitrocellulose membrane (Thermo Scientific™, 88018). After blocking in 5% non-fat milk for 30 minutes at room temperature (RT), the primary antibody was added for incubation overnight at 4° C. After washing with TBST (CST, #9997, 1:10 diluted by deionized water) for 3 times, HRP-conjugated secondary antibodies were applied. Signals were detected with an ECL kit (Thermo Scientific™, 34577) by using BioRad Universal Hood II.

[6] = tested on: NB16 cells; assay: Expression of RA receptors under RA treatment; conditions: NB16, RA 24 h
Protocol: as §2

[7] = tested on: SK-N-BE(2) cells; assay: Western blot of RA signaling proteins; conditions: 1 μM 5-AZA with 1 μM RA, 24 hrs
Protocol: as §2

[8] = tested on: RA-resistant neuroblastoma cells; assay: Morphological differentiation with 5-AZA and 13-cis-RA; conditions: 5-AZA with 1 μM 13-cis-RA, 3 days and 6 days
[9] = tested on: SK-N-BE(2) cells; assay: Global DNA methylation analysis by LC-MS (5mdc/dc); conditions: 1 μM, 5 h, 24 h and 48 h vs DMSO

SMILES | proliferation arrest ([1]; 48 hrs and 96 hrs) | differentiation morphology ([1]; 96 hrs) | proliferation ([2]; 48 hrs and 96 hrs) | neuron differentiation morphology ([2]; 96 hrs) | proliferation arrest ([3]; 48 hrs and 96 hrs) | differentiation morphology ([3]; 96 hrs) | proliferation ([4]; 48 hrs and 96 hrs) | neuron differentiation morphology ([4]; 96 hrs) | induction of RARα upon RA treatment (vs RA-sensitive cell lines) [5] | induction of RARγ upon RA treatment (vs RA-sensitive cell lines) [5] | induction of RARα upon RA treatment (vs RA-sensitive cell lines) [6] | induction of RARγ upon RA treatment (vs RA-sensitive cell lines) [6] | RA-induced expression of CRABP2 [7] | RA-induced expression of RARγ [7] | differentiation with RA (morphological changes) [8] | global DNA methylation (ratio of 5-methyl-deoxycytidine to deoxycytidine) [9]
CC1=C(/C=C/C(C)=C/C=C/C(C)=C\C(=O)O)C(C)(C)CCC1 [RA, 13-cis-retinoic acid] | did not show | did not show | proliferation arrest | significantly induced | did not show | did not show | proliferation arrest | significantly induced | less induction | less induction | less induction | less induction |  |  |  | 
Nc1ncn([C@@H]2O[C@H](CO)[C@@H](O)[C@H]2O)c(=O)n1 [5-Aza, 5-Azacytidine] |  |  |  |  |  |  |  |  |  |  |  |  | enhanced | enhanced | induced differentiation | reduced
